Consider nine compounds from article PMC9050674, “Structure-based inhibitor design for reshaping bacterial morphology” (Communications Biology, 2022).

Data set [1] deals with C. jejuni ATCC 33560 WT. Nature of the data set: Cell morphology change monitored by TEM. It is filed as cell-based, Campylobacter jejuni. The note with it: 37 °C, 24 h; for minimum concentration causing morphological changes (helical to curved-rod): KL-L9P used for improved permeability. The text has this:
Next, we investigated whether our inhibitors could transform C. jejuni from the helical- to curved-rod morphology on exposure to the inhibitors (Fig. 5). […] To investigate the effect of inhibitors on the morphology of C. jejuni cells, we exposed the cells to the inhibitors and checked whether the morphology could be altered.
Cell-morphology change of C. jejuni upon inhibitor treatment was monitored, as described previously with modifications. Briefly, overnight cultures of C. jejuni were harvested from MH agar plates and suspended in MH broth to approximately 1 × 10^6 colony-forming unit (CFU)/mL. A total of 500 μL of the diluted bacterial culture was added into each well of a 24-well plate with 5 μL of two-fold serial dilutions of inhibitor. For the control strain with no inhibitor, the same volume of dilution buffer (20 mM Tris-HCl pH 8.0 and 200 mM NaCl) was used. The plate was incubated under a micro-aerobic condition at 37 °C for 24 h in the static condition. After incubation, 10 μL of the bacterial cultures was placed on formvar/carbon-coated copper grids (200 mesh) and negatively stained with 2% uranyl acetate for 2 s.

For data set [2], the target named is Pgp3 WT (Campylobacter jejuni, UniProt Q0P921). Put plainly: Isothermal-titration calorimetry (ITC) with Pgp3 WT. Format: binding, C. jejuni. Here is the method: (§1) The gene encoding the amino-acid sequence of Glu21–Gln273 of Pgp3 from C. jejuni (strain ATCC 33560) was cloned into the expression vector pET-21a (Novagen) producing the recombinant wild-type Pgp3 protein with the C-terminal His6-tag ([…]). The protein expression and purification were conducted according to previously described methods with exception. The HiTrap chelating HP (GE Healthcare) column was washed with the lysis buffer containing 60 mM imidazole and the protein was eluted with a linear gradient from 100 to 500 mM imidazole. The protein was further purified by gel filtration on a HiLoad 16/60 Superdex 200 prep-grade column (GE Healthcare), which was previously equilibrated with 20 mM Tris-HCl pH 8.0 and 200 mM NaCl. The fractions containing the Pgp3 protein were pooled and concentrated to 15 mg mL^−1 for crystallization. The variants of Pgp3 (S169A, R195A, H216A, and H247A) were generated by site-directed mutagenesis using primer sets in Supplementary Table 1 and were purified as described for the WT Pgp3.
Using a micro-syringe, 2.5 μL of each inhibitor (2.25 mM) was added at intervals of 200 s to the Pgp3 solution in the cell with gentle stirring (125 rpm). The same ITC condition was applied to evaluate the KD values of BMK-S101 for each Pgp3 variant. All data were fitted to the single-binding-site model. Fitted curves were generated using GraphPad Prism 7. Data are mean ± SEM from triplicate experiments and the ITC thermograms are representative of triplicate experiments.

The target in data set [3] is Pgp3 (Campylobacter jejuni, UniProt Q0P921). Nature of the data set: biochemical. Details: species or system C. jejuni. As for the experimental part: Because DABCYL/FITC is a typical FRET quencher–fluorophore pair, an increase in fluorescent signals can be directly detected when it is processed by Pgp3 (Tang et al., 2013). The kinetic parameters (kcat = 0.0209 ± 0.0006 s^−1 and KM = 6.6 ± 0.7 µM) for the substrate were obtained by fitting the data to the Michaelis-Menten equation (Supplementary Fig. 8a).
The enzymatic assay for Pgp3 activity was determined using a fluorescein isothiocyanate (FITC) and 4′-([4′-(Dimethylamino)phenyl]-azo)-benzoic acid (DABCYL) pair for FRET. […] The excitation and emission spectra were set at 495 nm and 525 nm, respectively. Pgp3 (0.1 μM) in 20 mM HEPES pH 7.5, 200 mM NaCl, and 0.4 μM of zinc was used in this assay. The reaction was initiated by adding 3 μL of 0.015–2 mM substrate (final 1.56–200 μM) in the total volume of 30 μL of the reaction mixture. Initial velocities were calculated using slopes of fluorescence signal intensity in 3 min after the initiation of the reaction. In order to elucidate the inhibition mechanism of BMK-S301, initial velocities with various concentrations of substrates were measured in the presence of 40 μM BMK-S301. […] The same method was used for the determination of the IC50 values for inhibitors. Inhibitors in each concentration were pre-incubated with 0.1 μM of Pgp3 for 1 h on ice, and initial velocities were determined for 0.1, 10, 50, 100, 200, 500, and 1000 μM of each inhibitor in reaction with 10 μM of substrate. The IC50 values were calculated using GraphPad Prism 7.

Data set [4] deals with C. jejuni (ATCC 33560). Nature of the data set: Drug accumulation assay (LC-MS). The settings on record: for µM (concentration in LC-MS sample): single replicates (First, Second, Third), total volume 200 (r6-r19) or 100 (r23-r30); for µM (concentration in LC-MS sample) / nmol/1011 CFUs / Total nmol: source data Fig. 5b; for nmol/1011 CFUs / Total nmol: single replicates; for Total nmol: total volume 200 or 100. As for the experimental part: The accumulation assay was adapted from two different methods[42],[43]. […] The culture was grown overnight at 42 °C under the micro-aerobic condition. The cells were harvested at 6000 g for 15 min and washed with 1 × PBS, followed by resuspension in pre-warmed 1 × PBS to ~10^10 CFU/mL. The cell suspension (1.2 mL) was dispensed into a 24-well plate. Each compound to be examined was added into each well (final concentration = 100 μM). […] After incubation with shaking at 37 °C for 20 min, OD600 of each sample was measured, and the cells were harvested at 6000 g for 10 min at 4 °C. The pellets were resuspended in 250 μL of water, followed by three cycles of Freeze-Thaw with a dry ice/ethanol bath and a 37 °C-heating block in order to extract the compounds from C. jejuni. The cells were pelleted at 13,000 g for 5 min at room temperature. The supernatants (220 μL) were transferred to new tubes. The pellets were resuspended in 100 μL of methanol with vigorous vortexing for 1 min, followed by pelleting as before. The supernatants (100 μL) were combined with the solutions previously collected. The residual cell debris were removed at 20,000 g for 15 min at room temperature. The supernatants (300 μL) were dried with Genevac™ miVac Centrifugal Concentrator at room temperature for 5 h. Finally, the samples were resuspended with appropriate solvents and analyzed by LC-MS.
The suspension was centrifuged and the supernatant was analyzed by LC-MS. LC-MS systems consists of a Bruker impact II ultra-high resolution Qq-time-of-flight mass spectrometer using Hystar 5.0 SR1 software with a Waters Acquity UPLC H-Class system equipped with a quaternary solvent manager, a sample manager-FTN, and a photodiode array detector. The Bruker electrospray ionization source was operated in the positive ion mode, except for BMK-S301 (in the negative ion mode). […] A four-step 10-min LC gradient was as follows: 3 min at 98:2; 3 min to 85:15; 0.1 min to 98:2; 3.9 min at 98:2 for BMK-S101, -S203, and -S301. The ratio of the mobile phases (A = 0.1% formic acid in water, B = 0.1% formic acid in ACN) is given as A:B in LC gradients. […] The quantification was done by integrating the peak areas from extracted-ion chromatograms of corresponding m/z values of each compound.

Data set [5] deals with T1, Pgp3 S169A (Campylobacter jejuni, UniProt Q0P921, S169A).
T1 sequence (Q0P921 21-273 S169A): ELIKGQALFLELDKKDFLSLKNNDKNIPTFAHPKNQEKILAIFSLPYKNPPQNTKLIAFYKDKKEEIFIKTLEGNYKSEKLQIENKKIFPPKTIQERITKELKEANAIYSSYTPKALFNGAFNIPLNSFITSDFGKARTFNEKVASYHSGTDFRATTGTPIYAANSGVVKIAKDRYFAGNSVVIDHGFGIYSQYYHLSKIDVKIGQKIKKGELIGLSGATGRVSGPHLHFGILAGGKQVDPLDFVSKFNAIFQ
Put plainly: ITC with Pgp3 S169A variant. Format: binding, C. jejuni. As for the experimental part: (§2) To evaluate the contributions of the three residues (Ser169, Arg195, and His216) to binding of BMK-S101, they were substituted to Ala, and the effect of each mutation was evaluated using ITC (Fig. 2d and Supplementary Fig. 1).
as §1, with “Pgp3. […]” for “Pgp3.”

The target of data set [6] is T2, Pgp3 R195A (Campylobacter jejuni, UniProt Q0P921, R195A).
T2 sequence (Q0P921 21-273 R195A): T1 sequence (Q0P921 21-273 S169A)
Put plainly: ITC with Pgp3 R195A variant. Format: binding, C. jejuni. As for the experimental part:
as §2
as §1, with “Pgp3. […]” for “Pgp3.”

In data set [7] the target is T3, Pgp3 H216A (Campylobacter jejuni, UniProt Q0P921, H216A).
T3 sequence (Q0P921 21-273 H216A): T1 sequence (Q0P921 21-273 S169A)
Nature of the data set: ITC with Pgp3 H216A variant. Format: binding, C. jejuni. As for the experimental part:
as §2
as §1, with “Pgp3. […]” for “Pgp3.”

In data set [8] the target is Pgp3 H247A variant. Put plainly: ITC with inactive Pgp3 H247A variant. Format: binding, C. jejuni. The settings on record: ITC at 298 K, Pgp3 H247A variant (used to prevent turnover of substrate). As for the experimental part: as §1
Using a micro-syringe, 2.5 μL of each inhibitor (2.25 mM) was added at intervals of 200 s to the Pgp3 solution in the cell with gentle stirring (125 rpm). The same ITC condition was applied to evaluate the KD values of BMK-S101 for each Pgp3 variant. All data were fitted to the single-binding-site model. Fitted curves were generated using GraphPad Prism 7. […]

The target in data set [9] is Pgp3 H247A variant (peptidoglycan peptidase 3, Campylobacter jejuni, Glu21-Gln273) (C. jejuni (strain ATCC 33560)). Nature of the data set: ITC. In general terms: In ITC the heat of successive injections is recorded.
The mark [10] stands for this setting: substrate turnover by Pgp3, Michaelis-Menten fit.

Where “and” joins values, the source holds several entries; their conditions need not be identical. Equal values may be shown once.

As a reminder, the Kd is the equilibrium constant for the complex coming apart. A higher Kd goes with lower affinity. The term IC50 denotes the midpoint of a concentration-inhibition curve. Consider `NS(=O)(=O)c1ccc(-c2ccc(CC(=O)NO)cc2)cc1` [BMK-S303], for which the “minimum concentration causing morphological changes (helical to curved-rod)” value in data set [1] is recorded as 400 μM. For the same compound, in data set [2], the Kd came out at 1.4 ± 0.4 µM. Further, in data set [3], the IC50 is 22.3 ± 1.5 µM.
Compound `CC(=O)N[C@@H](CCN(CC(=O)O)Cc1ccccc1)C(=O)N[C@H](C)C(=O)NO` [BMK-S201] had a dissociation constant Kd in data set [2] of 1.3 ± 0.1 µM. For the same compound, in data set [4], the “µM (concentration in LC-MS sample)” value is 0.024 µM and 0.040 µM and 0.056 µM; the “nmol/1011 CFUs” value was 0.60 nmol/1011 CFUs and 0.97 nmol/1011 CFUs and 1.37 nmol/1011 CFUs; the Total nmol was 0.0048 nmol and 0.0079 nmol and 0.0112 nmol.
`CC(=O)N[C@@H](CCC[C@@H](NC(C)=O)C(=O)O)C(=O)N[C@H](C)C(=O)NO` [BMK-S101]: the Kd is 28.3 ± 5.8 µM in data set [5], 17.8 ± 0.8 µM in [6], 10.4 ± 2.6 µM in data set [7] and 2.3 ± 0.8 µM in data set [2]. In addition, in data set [1], the “concentrations without any detectable changes in the cell shape” value was ≤ 156 µM. Also, the “minimum concentration causing morphological changes (helical to curved-rod)” value in data set [1] is > 313 μM.
For the compound `CC(=O)N[C@@H](CCNCC(=O)O)C(=O)N[C@H](C)C(=O)NO` [BMK-S202], the “minimum concentration causing morphological changes (helical to curved-rod)” value in [1] is listed as 25~50 μM. For the same compound, the Kd in [2] was determined as 6.6 ± 0.3 µM.
With “Ac-L-Ala^1-γ-D-Glu^2-mDAP^3-D-Ala^4−D-Ala^5 [pentapeptide]”, the Kd in data set [8] was 6.8 ± 0.3 µM.
For `NS(=O)(=O)c1ccc(CC(=O)NCC(=O)NO)cc1` [BMK-S302], the “minimum concentration causing morphological changes (helical to curved-rod)” value in data set [1] turned out to be 100 μM. In addition, binding in data set [2] was put at a Kd of 9.9 ± 1.5 µM. The half-maximal inhibitory concentration (IC50) in data set [3] amounted to 244.6 ± 1.4 µM.
“pentapeptide (Ac-L-Ala1-γ-D-Glu2-mDAP3-D-Ala4-D-Ala5), peptidoglycan stem peptide” returned a Kd in data set [9] of 6.8 µM.
As to `CC(=O)N[C@@H](CCN(CC(=O)O)CC1CCCC1)C(=O)N[C@H](C)C(=O)NO` [BMK-S203], the “minimum concentration causing morphological changes (helical to curved-rod)” value in [1] is listed as 25~50 μM. The compound also returned a Kd in data set [2] of 1.8 ± 0.4 µM. Moreover, in data set [4] (100 μM compound, 37 °C, 20 min, LC-MS, mean), the “intracellular concentration (accumulation)” value is on record as 0.3 ± 0.1 nmole/10^11 CFU. In [4], the “µM (concentration in LC-MS sample)” value was 0.0294 µM and 0.0222 µM and 0.0293 µM; the “nmol/1011 CFUs” value is 0.333 nmol/1011 CFUs and 0.240 nmol/1011 CFUs and 0.327 nmol/1011 CFUs; the Total nmol was 0.00294 nmol and 0.00222 nmol and 0.00293 nmol.
As usually defined, the Km is the concentration of substrate that gives half-maximal velocity. For orientation: kcat means the maximal rate divided by the concentration of active sites. For the compound “FITC-L-Ala^1-D-Glu^2-mDAP^3-D-Ala^4-L-Lys^5-DABCYL [FRET substrate, reference compound]”, in data set [3] (setting [10]), the Km turned out to be 6.6 ± 0.7 µM and the kcat was determined as 0.0209 ± 0.0006 s⁻¹.
